Reference: PMC5947727, “Crystal structures of Lymphocytic choriomeningitis virus endonuclease domain complexed with diketo-acid ligands” (IUCrJ, 2018)

Experiments:
[1] = target: T1, LCMV endonuclease domain (ENDO, ENDO-WT) (Lymphocytic choriomeningitis virus (strain Armstrong), UniProt P14240, D119A); experiment: biochemical; type: binding
T1 construct: gene L; N-terminal endonuclease domain of L (residues 1-196), N-terminal hexahistidine tag, pDEST14, E. coli Rosetta (DE3) pLysS; IMAC, Q Sepharose, Superdex 200

[2] = target: T2, LCMV endonuclease domain (ENDO, ENDO-WT) (Lymphocytic choriomeningitis virus (strain Armstrong), UniProt P14240); experiment: biochemical; type: binding
T2 construct: gene L; N-terminal endonuclease domain of L (residues 1-196), N-terminal hexahistidine tag, pDEST14, E. coli Rosetta (DE3) pLysS; IMAC, Q Sepharose, Superdex 200

Structure (SMILES) | Kd [1] [nM] | Kd [2] [nM]
O=C(O)C(=O)CC(=O)c1ccccc1 [compound 1, 2,4-dioxo-4-phenylbutanoic acid] | 18800 ± 3880 | 5380 ± 2060
O=C(O)/C(O)=C/C(=O)C1(Cc2ccc(Cl)cc2)CCN(Cc2ccccc2)CC1 [compound 2, (Z)-4-{1-benzyl-4-[(4-chlorophenyl)methyl]piperidin-4-yl}-2-hydroxy-4-oxobut-2-enoic acid] | 890 ± 60 | 510 ± 110
O=C(O)C(O)=CC(=O)c1ccc(-c2ccccc2)cc1 [compound 3, 2-hydroxy-4-(biphenyl-4-yl)-4-oxobut-2-enoic acid] |  | 50 ± 20
O=C(O)C(O)=CC(=O)c1ccc2ccc3ccccc3c2c1 [compound 4, 2-hydroxy-4-oxo-4-(phenanthren-3-yl)but-2-enoic acid] |  | 250 ± 70
